What was measured:
[1] = E2 and 2dDR release from PHBV scaffolds in PBS; type: physicochemical; settings: by 7 days
Method: 10% (w/w) PHBV solution loaded was prepared prior to electrospinning. 1 g of PHBV granules (Goodfellow, London, UK) were dissolved in 1 g of methanol (Fisher Scientific, Massachusetts, USA) and 8 g of DCM (Fisher Scientific, Massachusetts, USA) in a fume hood. Four 10% PHBV solutions were prepared prior to addition of substances. Finally, 25 mg E2, 50 mg of E2, 250 mg of 2dDR and 500 mg of 2dDR were then added to each solution per 1 g of PHBV. The mixtures were magnetically stirred overnight.
Scaffolds were cut into pieces so to fit into an 6-well plate, weighed and submerged in 4 ml of PBS. The E2 and 2dDR concentrations released from each group (25 mg E2, 50 mg E2, 250 mg 2dDR, 500 mg 2dDR) were measured […] using a UV-VIS spectrophotometer (Thermo Fischer Evolution 220, Massachusetts, USA) at 238 nm for 2dDR and 220 nm for E2. Absorbance values were converted into concentrations using a standard curve of known concentrations of E2 and 2dDR.

CAM = experiment: Ex-ovo CAM assay, direct application of substances; type: in vivo, chicken (Gallus domesticus)
Method: All CAM experiments were carried out according to the Home Office, UK guidelines. Fertilised chicken eggs (Gallus domesticus) were purchased from Henry Stewart & Co. (MedEggs, Norwich, UK). The eggs were carefully wiped with 20% industrial methylated spirit (IMS) solution using hand paper towels in order to remove dirt and feathers from the shell. The eggs were then incubated at 37.5° C. until embryonic development day (EDD) 3, lying horizontally in an humidified egg incubator (RCOM King SURO, P&T Poultry, Powys, Wales).
On EDD3, the upper surface of the eggs were marked with a felt pen. The eggs were held horizontally (with the marked surface on top) and cracked on the edge of a 1000 ml glass beaker and kept close to the bottom surface of petri dishes. The embryos were then transferred gently into sterile petri dishes and kept in a humidified incubator (Binder, Tuttlingen, Germany) at 38° C.
Plastic rings (˜6.5 mm in diameter) were used as a reservoir for substances and a marker for the implantation area, were placed on the CAM, and the substances were applied as 20 μl volume onto the CAM twice a day to give a […] between EDD7 and EDD11. Images of the rings were acquired using a digital microscope at EDD11, and then 20% lens culinaris agglutinin (LCA) (Vector Laboratories, Peterborough, UK) was injected into the circulation for labelling the intravascular endothelial cells using 30G needles under a dissection microscope (Wild Heerbrugg, Heerbrugg, Switzerland). CAMs were then removed and fixed in 3.7% formaldehyde solution. Embryos were sacrificed at the end of EDD11. Fixed CAM samples were then imaged under a confocal microscope (Zeiss LSM 510 Meta, Jena, Germany) for investigating the effect of substances on the microvascular structure of the CAMs.
Blood vessels were quantified by segmentation of the images [C. Roma-Rodrigues, A. Heuer-Jungemann, A. R. Fernandes, A. G. Kanaras, P. V. Baptista, Peptide-coated gold nanoparticles for modulation of angiogenesis in vivo, IntJ Nanomedicine. 11 (2016) 2633-2639. doi: 10.2147/IJN.S108661] so as to include all discernible vessels and then counting the branch points and calculating average vessel lengths [D. Ribatti, B. Nico, A. Vacca, M. Presta, The gelatin sponge-chorioallantoic membrane assay, Nat Protoc. 1 (2006) 85-91. doi: 10.1038/nprot.2006.13, P. Brooks, A. P. Montgomery, D. Cheresh, Use of the 10-Day-Old Chick Embryo Model for Studying Angiogenesis, Integrin Protoc. 129 (1999) 257-269. doi: 10.1385/1-59259-249-X: 257] via multiple image processing steps. Firstly, the internal area of the ring was cropped, and the red, green and blue channels were split using Adobe Photoshop CS6 (ADOBE Systems Inc., San Jose, California, USA). The green channel was then imported to ImageJ (Wayne Rasband, National Institutes of Health, USA) for further analysis including unsharp mask filtering, enhancing the local contrast, noise removal and segmentation. Finally, the number of branch points was quantified using quantification software (AngioTool, National Cancer Institute, USA) (FIG. 14A) and average blood vessel lengths were calculated by using binary image histograms with known pixel/mm ratios in ImageJ (Wayne Rasband, National Institutes of Health, USA).
The percentage vascular area (VA %) of the microvasculature of CAMs were quantified using confocal images of rhodamine labelled lectin injected CAM samples as shown in FIG. 14B. To do this, images were imported to ImageJ (Wayne Rasband, National Institutes of Health, USA) and converted to binary images after filtering and smoothing processes prior to quantification. VA % was calculated using the histogram list of black and white areas in the image.
All chemicals were purchased from Sigma Aldrich unless indicated otherwise. […]

[2] = tested on: chorionic allantoic membrane (CAM); experiment: CAM assay of deoxy sugar-loaded biomaterials (in ovo, implanted day 8, scored day 14); type: in vivo, chicken (Gallus domesticus)
Method: Fertilized chicken (Gallus domesticus) eggs were purchased from Big Bird (Raiwind road, Lahore, Pakistan) and incubated at 37° C. from day 2 of fertilization until day 8 in a humidified egg incubator (HHD, 435, China). At day 8, a square window (1 cm^2) was cut into the shell and removed, and a 2 cm^2 piece of the electrospun scaffold or hydrogels (16% PCL electrospun scaffold/CS/PVA hydrogel/CS/collagen hydrogels) placed onto the CAM. Each egg was implanted with one scaffold or hydrogel only.
The shell window was closed with parafilm (Bemis Flexible Packaging, USA) and sealed with adhesive tape. After implantation, eggs were placed again at 37° C. in a 40% humidified incubator until day 14. At day 14, biomaterials were retrieved and the eggs were sacrificed. Angiogenesis was quantified by taking light microscope pictures just before scaffold retrieval and then blindly scored by four assessors using histological images of the retrieved materials. The number of implanted and survived eggs is given in the caption of respective CAM assay figures.
D and L isomers of three-deoxysugars (ribose, fucose and rhamnose) were loaded onto the porous freeze gelated triethyl orthoformate (4%) covalently cross-linked chitosan/collagen (1:1) hydrogels. The hydrogels were soaked in an aqueous solution of sugars (1 mg/ml) and were further lyophilized (freeze dried) to produce porous membranes. As for the electrospun scaffold, the hydrogels were grafted into the fertilized eggs at day 8 and after day 14 the eggs were sacrificed and the effect of sugars on angiogenesis was investigated.

O=CC[C@H](O)[C@H](O)CO [2-deoxy-D-ribose]
release from the scaffolds, of the amount present in the polymer solution ([1]; 250 mg 2dDR per 1 g PHBV scaffold): 81.3%
release from the scaffolds, of the amount present in the polymer solution ([1]; 500 mg 2dDR per 1 g PHBV scaffold): 86.5%
increase of number of branch points (CAM; 2dDR 20 μg/day): 1.3 times
increase of number of branch points (CAM; 2dDR 200 μg/day): 1.4 times
percentage vascular area (VA %) of microvasculature (CAM; 2dDR 200 μg/day, over 4 days, control 55.3%±3%): 71.7%±3%
angiogenic response (average vessel length) compared to control (CAM; 2dDR 1000 μg/day): no significant difference
increase of average vessel length (CAM; both 2dDR 20 μg/day and 200 μg/day): 1.2 times
angiogenic response ([2]; loaded (1 mg/ml) in cross-linked chitosan/collagen hydrogels): strongly angiogenic
angiogenesis compared to the control material ([2]; loaded in chitosan/PVA triethyl orthoformate cross-linked hydrogels): promoted angiogenesis
angiogenic potential (new blood vessels) ([2]; loaded in electrospun PCL fibers): growth of extensive new blood vessels under the material

— patent US20250099486A1, “WOUND HEALING MEDICAMENT” (The University of Sheffield, priority 2017, published 2025)
